Experimental findings from patent publication US7217730B2, “Method for the use of pyranoindole derivatives to treat infection with Hepatitis C virus” (Wyeth, priority 2002, dated 2007) are described below.

For this assay, the target named is T1, NS5B from the BK strain (genotype 1b) (Hepatitis C virus genotype 1b, UniProt P26663).
T1 construct: NS5B from the BK strain (genotype 1b) is expressed in E. coli as a protein in which the 21 C-terminal amino acids are replaced; made in house; host or cells: E. coli
The assay is described as follows: Hepatitis C polymerase inhibition, NS5B BK strain, 33P-GTP filter assay. Type of assay: biochemical. Particulars: Table 1A; for inhibition at 20 µM: 20 μM compound, read-out: HCV pol % inh at 20 μM; for IC50: NS5B BK strain, read-out: HCV pol BK IC50. An excerpt: The ability of the compounds of the present invention to inhibit Hepatitis C Polymerase was established by the following experimental procedure: • NS5B from the BK strain (genotype 1b) is expressed in E. coli as a protein in which the 21 C-terminal amino acids are replaced with a short linker and a hexahistidine tag ([…]). The purified protein is mixed with radioactive nucleotides and allowed to replicate a heteropolymeric RNA substrate, primed by an endogenous short hairpin, resulting in an approximately 760 nt product. The radioactive product is captured on a filter and quantitated after removal of the unincorporated nucleotides.
Reagents: • 10 mM uridine 5′-triphosphate (UTP) (Promega # p116B) • 10 mM adenine 5′-triphosphate (ATP) (Promega # p113B) • 10 mM cytidine 5′-triphosphate (CTP) (Promega # p114B) • 10 mM guanine 5′-triphosphate (GTP) (Promega # p115B) • Bovine Serum Albumin (BSA) 10 mg/ml NEB (100× at 10 mg/ml) #007-BSA • RNasein (Promega #N251X) 40 U/μl • A-[33P]-GTP (NEN-easytides NEG/606H 3000 Ci/mmol, 370 MBq/ml, 10 mCi/ml) • Falcon polypropylene 96 well plates (Becton Dickinson # 351190) • Millipore Multiscreen assasy system-96 well-filtration plate #MADE NOB 50 • Optiphase Supermix (Wallac) formulated by Fisher • Millipore Multiscreen liner for use in microbeta 1450-106 casette [(Wallac) Perkin Elmer #1450-433] • 1 M(N-[2-hydroxyethyl]piperazine-N′-[2-ethanesulfonic acid]) (HEPES), pH 7.3 • Amersham Pharmacia Biotec (US16924-500 ml) • 1 M MgCl2 (SIGMA #M1028) • Dithiothreitol (DTT) (solid) (SIGMA #D9779) • RNase free water (GIBCO-BRL #10977-023) • Dimethyl sulfoxide (Aldrich #27685-5) • Basilen Blue (Sigma, B5520) • 0.5M ethylenediaminetetraacetic acid (EDTA), pH 8 (GIBCO-BRL #15575-020) • Dibasic sodium phosphate (7-hydrate) (Na2HPO4.7H2O; Baker#3824-07) • Phosphoric acid (Baker, #0262.02)
Further reagent preparation: • 0.5 M Na Phosphate buffer. Per liter, weigh 134 gr Na2HPO4.7H2O, add water to 900 ml. Adjust pH to 7.0 with phosphoric acid. Top off with water to 1 L. • Dilute nucleotides 1:1000 to 10 μM (GTP and CTP) or 1:100 to 100 μM (ATP and UTP) into RNase free water.
Procedure: • (1) Compounds 10 μl at 10 μg/ml in 15% dimethylsulfoxide (DMSO)
When starting from 100 μg/ml compound stock in […]: • Dispense 5 μl 30% DMSO per well • Dispense 5 μl compound (100 μg/ml) per well.
When starting from 50 μg/ml compound stock in 15% DMSO: • Add 10 μl compound per well. • (2) Enzyme Mix:
Add 20 μl enzyme mix into each well of the assay plate. Incubate compound and enzyme at room temperature for 15 minutes • (3) Template mix—prepare ahead
Spin down a tube of RNA (5 μg/tube stored in 75% ethanol and 0.3 M sodium acetate) in a microcentrifuge for 20 minutes at 4° C. One tube is enough for 1–1.5 plates. Remove as much ethanol from the tube as possible by inverting the tube. Be gentle, pellet RNA may not adhere to the tube. Vacuum dry the RNA. Resuspend the RNA by adding 1 ml of DEPC water, close the cap of the tube tightly. To dissolve RNA, incubate RNA solution on ice for ˜60 minutes and gently vortex. Spin briefly to ensure all RNA solution is down to the bottom of the tube before opening cap. Gently transfer RNA solution into a 5 ml or larger tube. Add another 3 ml of DEPC water (total 4 ml of volume).
Add the following volumes of reagents
Add 20 μl template mix per reaction (i.e. 20 ng of pOF per reaction or ˜3 nM) • (4) Incubate reaction at room temperature (22–25° C.) for 2 hours. • (5) Stop reaction by adding 50 μl of 170 mM EDTA. • Final concentration of EDTA is 85 mM. • (6) Prewet filters of Millipore multiscreen assay plate by adding 200 μl of 0.5 M sodium phosphate buffer, pH 7.0 into each well. Let stand at room temperature for 2–3 minutes. • (7) Place the multiscreen filter plate onto a Millipore Manifold and turn on vacuum to allow buffer to flow through. Turn off vacuum. Transfer 80 μl of the reaction product into each well of the filter plate. Let stand for 2–3 minutes. […]

Each structure is given as a SMILES string. Where only a bound is given, the exact number is not on record here.

T1 sequence (P26663 2420-2989): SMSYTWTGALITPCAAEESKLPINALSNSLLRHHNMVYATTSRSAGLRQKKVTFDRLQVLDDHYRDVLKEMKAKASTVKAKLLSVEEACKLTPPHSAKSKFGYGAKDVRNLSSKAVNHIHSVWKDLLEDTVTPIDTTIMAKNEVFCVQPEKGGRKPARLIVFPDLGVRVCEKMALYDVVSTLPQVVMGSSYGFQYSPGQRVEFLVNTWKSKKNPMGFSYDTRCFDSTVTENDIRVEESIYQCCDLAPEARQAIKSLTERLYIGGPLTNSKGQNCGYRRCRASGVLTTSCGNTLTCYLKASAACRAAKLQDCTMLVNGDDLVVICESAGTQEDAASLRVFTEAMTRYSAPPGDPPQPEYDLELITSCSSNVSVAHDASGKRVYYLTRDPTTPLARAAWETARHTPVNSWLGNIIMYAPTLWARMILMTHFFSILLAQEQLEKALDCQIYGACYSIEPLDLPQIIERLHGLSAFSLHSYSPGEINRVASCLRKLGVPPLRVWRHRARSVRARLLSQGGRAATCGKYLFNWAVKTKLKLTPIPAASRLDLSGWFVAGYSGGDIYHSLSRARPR

As usually defined, the IC50 is the point on the concentration scale where inhibition reaches its midpoint. `Cc1cc(F)c(C#N)c2c3c([nH]c12)C(C)(CC(=O)O)OCC3` (centres unmarked) [Example 205, (5-cyano-6-fluoro-1,8-dimethyl-1,3,4,9-tetrahydropyrano[3,4-b]indol-1-yl)acetic acid]: the inhibition at 20 µM is 34% and the IC50 is greater than 20 µM.

With `CCCC1(CC(=O)O)OCCc2c1[nH]c1cccc(Cl)c21` (centres unmarked) [Example 14, (5-Chloro-1-propyl-1,3,4,9-tetrahydropyrano[3,4-b]indol-1-yl)acetic acid], the inhibition at 20 µM was found to be 75% and the IC50 is 11 µM.

For `Cc1cc(Cl)c2[nH]c3c(c2c1Br)CCOC3(CC(=O)O)c1ccccc1` (centres unmarked) [Example 179, (5-bromo-8-chloro-6-methyl-1-phenyl-1,3,4,9-tetrahydropyrano[3,4-b]indol-1-yl)acetic acid], the inhibition at 20 µM was 15% and the IC50 was greater than 5 µM.

In the case of `C/C=C/CCC1(CC(=O)O)OCCc2c1[nH]c1c(Cl)cccc21` (centres unmarked) [Example 77, {8-chloro-1-[(3E)-pent-3-enyl]-1,3,4,9-tetrahydropyrano[3,4-b]indol-1-yl}acetic acid], the inhibition at 20 µM came to 16% and the IC50 is greater than 20 µM.

In the case of `CCCC1(CC(=O)O)OCCc2c1[nH]c1c(-c3ccc(OC)cc3)cccc21` (centres unmarked) [Example 91, [8-(4-methoxyphenyl)-1-propyl-1,3,4,9-tetrahydropyrano[3,4-b]indol-1-yl]acetic acid], the inhibition at 20 µM is less than 5% and the concentration for half-maximal inhibition (IC50) is greater than 20 µM.

In the case of `Cc1cc(Cl)c2[nH]c3c(c2c1C#N)CCOC3(CC(=O)O)c1ccc(C(=O)O)cc1` (centres unmarked) [Example 188, 4-[1-(carboxymethyl)-8-chloro-5-cyano-6-methyl-1,3,4,9-tetrahydropyrano[3,4-b]indol-1-yl]benzoic acid], the inhibition at 20 µM came out at 76% and the IC50 is greater than 5 µM.

Take `Cc1cc(F)c2[nH]c3c(c2c1Br)CCOC3(CC(=O)O)c1ccccc1` (centres unmarked) [Example 168, (5-bromo-8-fluoro-6-methyl-1-phenyl-1,3,4,9-tetrahydropyrano[3,4-b]indol-1-yl)acetic acid]: the inhibition at 20 µM stood at 4% and the IC50 is greater than 10 µM.

In the case of `CCCCC1(CC(=O)O)OCCc2c1[nH]c1c(F)cc(C)c(Br)c21` (centres unmarked) [Example 167, (5-bromo-1-butyl-8-fluoro-6-methyl-1,3,4,9-tetrahydropyrano[3,4-b]indol-1-yl)acetic acid], the inhibition at 20 µM turned out to be 80% and the half-maximal inhibitory concentration (IC50) came out at 3 µM.

For `CCCC1(CC(=O)O)OCCc2c1[nH]c1cccc(-c3ccccc3)c21` (centres unmarked) [Example 31, (5-phenyl-1-propyl-1,3,4,9-tetrahydropyrano[3,4-b]indol-1-yl)acetic acid], the inhibition at 20 µM is 12% and the IC50 was greater than 20 µM.

Turning to `C/C=C/CCC1(CC(=O)O)OCCc2c1[nH]c1c(Br)cccc21` (centres unmarked) [Example 85, {8-bromo-1-[(3E)-pent-3-enyl]-1,3,4,9-tetrahydropyrano[3,4-b]indol-1-yl}acetic acid], the inhibition at 20 µM was 18% and the IC50 was greater than 20 µM.

Take `CC(C)C1(CC(=O)O)OCCc2c1[nH]c1c(C(F)(F)F)cccc21` (centres unmarked) [Example 118, [1-isopropyl-8-(trifluoromethyl)-1,3,4,9-tetrahydropyrano[3,4-b]indol-1-yl]acetic acid]: the inhibition at 20 µM stood at 10% and the IC50 was greater than 20 µM.

For the compound `CCCC1(CC(=O)O)OCCc2c1[nH]c1c(F)ccc(C#N)c21` (centres unmarked) [Example 4, (5-cyano-8-fluoro-1-propyl-1,3,4,9-tetrahydro-pyrano[3,4-b]indol-1-yl)acetic acid], the IC50 was found to be 1 µM.

Turning to `CC(C)C1(CC(=O)O)OCCc2c1[nH]c1c(Br)cccc21` (centres unmarked) [Example 83, (8-bromo-1-isopropyl-1,3,4,9-tetrahydropyrano[3,4-b]indol-1-yl)acetic acid], the inhibition at 20 µM was found to be 41% and the half-maximal inhibitory concentration (IC50) was greater than 20 µM.

`Cc1cc(Cl)c2[nH]c3c(c2c1Br)CCOC3(CC(=O)O)c1ccc(C(=O)O)cc1` (centres unmarked) [Example 180, 4-[5-bromo-1-(carboxymethyl)-8-chloro-6-methyl-1,3,4,9-tetrahydropyrano[3,4-b]indol-1-yl]benzoic acid]: the inhibition at 20 µM came to 92% and the concentration for half-maximal inhibition (IC50) turned out to be 0.81 µM.

As to `O=C(O)CC1(c2ccccc2)OCCc2c1[nH]c1c(Br)cccc21` (centres unmarked) [Example 86, (8-bromo-1-phenyl-1,3,4,9-tetrahydropyrano[3,4-b]indol-1-yl)acetic acid], the inhibition at 20 µM turned out to be 20% and the IC50 is greater than 20 µM.

In the case of `CCCC1(CC(=O)O)OCCc2c1[nH]c1cccc(Br)c21` (centres unmarked) [Example 22, (5-bromo-1-propyl-1,3,4,9-tetrahydropyrano[3,4-b]indol-1-yl)acetic acid], the inhibition at 20 µM was 70%.

For `O=C(O)CC1(c2ccoc2)OCCc2c1[nH]c1c(Cl)cccc21` (centres unmarked) [Example 79, [8-chloro-1-(3-furyl)-1,3,4,9-tetrahydropyrano[3,4-b]indol-1-yl]acetic acid], the inhibition at 20 µM turned out to be 40% and the IC50 is greater than 20 µM.

For the compound `O=C(O)CC1(c2ccc([N+](=O)[O-])cc2)OCCc2c1[nH]c1cccc(Br)c21` (centres unmarked) [Example 28, [5-bromo-1-(4-nitrophenyl)-1,3,4,9-tetrahydropyrano[3,4-b]indol-1-yl]acetic acid], the inhibition at 20 µM is less than 5% and the IC50 is greater than 20 µM.

Take `CCCCC1(CC(=O)O)OCCc2c1[nH]c1c(Cl)ccc(Cl)c21` (centres unmarked) [Example 67, (1-butyl-5,8-dichloro-1,3,4,9-tetrahydropyrano[3,4-b]indol-1-yl)acetic acid]: the inhibition at 20 µM was 78% and the IC50 worked out at 0.76 µM.

For `CC1(CC(=O)O)OCCc2c1[nH]c1c(Br)cccc21` (centres unmarked) [Example 80, (8-bromo-1-methyl-1,3,4,9-tetrahydropyrano[3,4-b]indol-1-yl)acetic acid], the inhibition at 20 µM stood at 35% and the concentration for half-maximal inhibition (IC50) was greater than 20 µM.

In the case of `O=C(O)CC1(c2ccoc2)OCCc2c1[nH]c1c(Cl)cc(Cl)c(Cl)c21` (centres unmarked) [Example 162, [5,6,8-trichloro-1-(3-furyl)-1,3,4,9-tetrahydropyrano[3,4-b]indol-1-yl]acetic acid], the inhibition at 20 µM was determined as 73% and the IC50 came out at 2.4 µM.

As to `CCCC1(CC(=O)O)OCCc2c1[nH]c1c(Cl)cc(C)c(Cl)c21` (centres unmarked) [Example 216, (5,8-dichloro-6-methyl-1-propyl-1,3,4,9-tetrahydropyrano[3,4-b]indol-1-yl)acetic acid], the inhibition at 20 µM is 86% and the IC50 came to 0.26 µM.

In the case of `CCC1(CC(=O)O)OCCc2c1[nH]c1c(Cl)cccc21` (centres unmarked) [Example 73, (8-chloro-1-ethyl-1,3,4,9-tetrahydropyrano[3,4-b]indol-1-yl)acetic acid], the inhibition at 20 µM was found to be 22% and the IC50 is greater than 20 µM.
